Test results reported in a melting point compilation (Tetko et al.; mined from patent text by program, amines drawn as free bases though some values may be those of a salt).

melting point [°C]	SMILES
114 to 121	CCN(CC)CCCOc1cccc(-c2oc3ccccc3c2C(=O)c2cc(C)cc(C)c2)c1
91	CCCCCCCCCCSCCCCCCCCCCNC(=O)OCCN1CCOCC1
128 to 130	COc1cc2ccc(S(=O)(=O)Cl)cc2cc1OC
172	Cc1cc(NC(=O)c2ccn3c2CSC3c2cccnc2)c2ccccc2c1 (centres undefined)
56 to 58	CCON=C(CC)C1=C(O)CC(c2c(C)c3c(c(C)c2Cl)CC(C)(CC)C3)CC1=O (centres undefined)
147 to 148	COc1cc2c(cc1O)C(=O)CCC2
176 to 177	CC(C)=NOCc1nc2c(N)nc3c(c2n1CC(C)C)CCCC3
> 250	COc1ccc2c(Nc3ccc4cn[nH]c4c3)c(C#N)cnc2c1
219 to 220	CCCc1nn(C)c2c(=O)[nH]c(-c3sc(S(=O)(=O)N4CCN(C)CC4)cc3OCC)nc12
136	CC(=O)C1C(=O)CC(CCS(=O)(=O)c2ccc(C(F)(F)F)cc2)CC1=O (centres undefined)
142	CN(C)c1nc(O)ns1
130 to 132	O=C(N(Cc1ccccc1)Cc1cccs1)C12CC3CC(CC(C3)C1)C2
92 to 98	CCCn1c(-c2ccc(-n3ccnc3)cc2)cnc1[C@H](Cc1ccccn1)N(C=O)c1cc2cc(C(F)(F)F)ccc2o1
143	O=C(CCc1cccc2[nH]ccc12)c1ccccc1O
154 to 156	O=C(O)CCC(=O)c1ccc(-c2ccc(Cl)c(Cl)c2)cc1
258 to 259	C=C(C)C1CCC2(C(=O)O)CCC3(C)C(CCC4C5(C)CCC(O)C(C)(CO)C5CCC43C)C12 (centres undefined)
120 to 132	CCCNC(=O)C(C)Cc1ccc2c(c1)c(Cc1ccc(C(=O)NS(=O)(=O)c3ccccc3C)cc1OC)cn2CCC(=O)N(C)C (centres undefined)
135 to 136	COC(=O)C(NC(=O)c1cc2cc(Cl)ccc2[nH]1)C(C)c1ccccc1 (centres undefined)
144 to 146	O=C(O)C(CC(=O)N1CCOCC1)NS(=O)(=O)c1ccc(-c2ccc(Cl)cc2)cc1 (centres undefined)
89 to 91	Nc1sc2c(c1C(=O)c1ccccc1)CCN(CCc1ccc([N+](=O)[O-])cc1)C2
223 to 224	COCc1nc2c(OC)c3c(=O)n(C)c(COC)nc3c(OC)c2c(=O)n1C
38	CCc1ccc(S(=O)(=O)NC(C)(C)C)s1
184	COc1ccc2[nH]cc(/C(C#N)=C/c3ccc(Cl)nc3)c2c1

melting point [°C]	SMILES
147 to 149	CC(CCc1nnn[nH]1)Oc1cccc(OCc2ccc3ccccc3n2)c1 (centres undefined)
104 to 105	N#Cc1ccc2c(c1)NCc1ccccc1O2
169 to 180	CC(C)c1ccc2c(c1)NC(=S)C2=O
92 to 94	CCCc1nnc2c(N(CC)CC)nc3ccccc3n12
60	COc1ccc(-c2c(C)c3cc(OC)ccc3n2CCCCCCBr)cc1
110 to 114	COC(=O)[C@@H](O)[C@H](CC(C)C)NC(=O)[C@H](Cc1c[nH]cn1)NC(=O)[C@H](Cc1cccc2ccccc12)NC(=O)OCc1ccccc1
122 to 124	CCCCc1oc2ccccc2c1C(=O)NCc1ccc2c(-c3ccc(Cl)cc3)c(O)ccc2c1
136 to 138	COc1cc(I)c(Oc2cnc(N)nc2N)cc1I
> 280	c1ccc(-c2ccc3nc(C4(c5ccc6[nH]nnc6c5)N=c5ccccc5=N4)[nH]c3c2)cc1
168 to 170	CCOC(=O)NNc1ccc(-c2cccc(C(F)(F)F)c2)nn1
178 to 183	COc1cc2c(cc1-c1cccnc1)-c1c(-c3cccs3)c3c(n1CC2)C(=O)N(C(C)C)CCN(C(=O)C(C)C)C3
216	CC1(C)OC(=O)C(c2ccc(-c3cscn3)cc2)=C1c1ccc(S(C)(=O)=O)cc1
173 to 174	CCOC(=O)c1c(CCn2ccnc2)nc2cc(OC)c(OC)cc2c1-c1ccc(OC)c(OC)c1
171 to 172	COC(=O)c1ccc(-c2coc3ccc(-c4nnc(C)o4)cc23)c(Cl)c1
87 to 90	Cc1ccc(Oc2ccc(Cl)cn2)c(Oc2ccc(Cl)cn2)c1
178 to 179	Fc1ccc(-c2ncn(C3CCNCC3)c2-c2cccnc2Oc2ccc(OCc3ccccc3)cc2)cc1
203 to 205	N#Cc1ccc(OCc2ccnnc2)cc1OC(C(=O)O)c1ccccc1Cl (racemic)
253	CCOP(=O)(OCC)C1Cc2cc(C(F)(F)F)cc3[nH]c(=O)c(=O)n(c23)C1 (centres undefined)
112 to 114	CC(C)C1CC(=O)C(C(=O)NS(=O)(=O)c2ccccc2)C(=O)C1 (centres undefined)
149	Cn1cc(Nc2ccc([N+](=O)[O-])cc2[N+](=O)[O-])cn1
114 to 116	COc1ccc(CCN2CCC(C(=O)c3csc4ccccc34)CC2)cc1
88 to 89	CCOC(=O)c1c(O)c2ccc(F)cc2c(=O)n1CC1CC1
58	O=C(c1ccccc1)c1ccc(OCCCCCCBr)c(Cl)c1

melting point [°C]	SMILES
166 to 167	COC(=O)C(C)(C)Cc1c(SC(C)(C)C)c2cc(OCc3ccc4ccccc4n3)ccc2n1Cc1ccc(Cl)cc1
190 to 191	CC1C(OC(=O)CCCCCCCCC(=O)OC2C(C)C(c3ccccc3)N(O)C(c3ccccc3)C2C)C(C)C(c2ccccc2)N(O)C1c1ccccc1 (centres undefined)
258 to 260	Oc1ccc(Nc2nc(NCc3ccco3)nc(Nc3ccc4[nH]ccc4c3)n2)cc1
202 to 204	O=C(Nc1ccc2nc(CN3CCCCC3)ccc2c1)c1ccc(-c2ccc(F)cc2)cc1
260 to 262	O=C(O)c1cc(-n2c(-c3ccccc3)cc3c2CCc2ccccc2-3)ccc1S
139	CCCCN(C(=O)CNC(=O)c1cc2ccccc2n1CC(=O)OC)c1c(OC)cc(C)cc1OC
188 to 190	CCOC(=O)c1cccc2[nH]c(=O)oc(=O)c12
97 to 98	CC(=O)N1CCO[C@@H]2c3ccccc3OCC[C@H]21 (relative stereo)
128 to 129	COCCc1nc2c(N)nc3ccccc3c2n1CCCCC(=O)N1CCOCC1
95 to 97	FC(F)(F)c1cc(CO[C@@H]2CCCN(Cc3nc4ccccc4o3)[C@@H]2c2ccccc2)cc(C(F)(F)F)c1 (relative stereo)
103 to 105	COC(=O)c1cc(C)c(C(OC(=O)C(C)NS(=O)(=O)c2ccc(C)cc2)c2cc(-n3ccnc3)ccc2C)c(C)c1 (centres undefined)
194 to 196	CS(=O)(=O)c1ccc(-c2cc(-n3ccc(C(F)(F)F)n3)c3ccccc3n2)cc1
156 to 158	O=C(O)C1C=CCn2c(=O)n(CCS)c(=O)n21 (centres undefined)
290 to 291	Fc1cccc(-c2nc3cnccc3[nH]2)c1
79 to 81	Cc1ncoc1C(O)c1ccccc1 (centres undefined)
> 240	O=c1oc(-c2ccccc2)cc(O)c1Sc1c(O)cc(-c2ccccc2)oc1=O
123 to 124	CC1(C)CC(=O)c2c(nc(Cc3ccc(N)cc3)c3[nH]c4ccccc4c23)C1
207 to 208	CC1(C)OC(=O)Nc2ccc(-c3cc(F)cc(C(F)(F)F)c3)cc21
250 to 252	O=S(=O)(N=C(O)c1ccc(OCCn2ccnc2)cc1)c1ccccc1
114 to 116	Clc1cccc(C2CCN(CCCOc3ccc4scnc4c3)CC2)c1Cl
150 to 151	CCOC(=O)C(=O)Nc1ccc2ccccc2c1NC(=O)C(=O)OCC
84 to 86	CC(C)Cc1ccc(C(C)C(N)=O)cc1 (centres undefined)
73 to 76	C[C@@H](O)C(O)(Cn1ccnc1)c1ccc(F)cc1F (some centres undefined)

melting point [°C]	SMILES
233	COC(=O)c1ccc(C(=O)NS(=O)(=O)c2ccc(CCNC(=O)c3cc(Cl)ccc3OC)cc2)cn1
128 to 131	O=C(Cn1nc(C(F)(F)F)cc1Cl)N1CCC(c2nc(C3=NOC(c4ccccc4)C3)cs2)CC1 (centres undefined)
68 to 78	O=S(=O)(O)CCN1CCOCC1
103 to 105	O=c1c2ccccc2cc(N2CCCCC2)c2ccccc12
207 to 209	O=C(NC1CCCC1)c1cccc(-c2ccnc3c(C(=O)c4cccs4)cnn23)c1
225 to 230	CCc1ccc2c(c1)C=Cc1cc(C)ccc1C2c1cn(-c2ccc(SCC(=O)O)nn2)c(=O)[nH]c1=O (centres undefined)
179	Fc1ccccc1[C@]1(Cn2nc[nH]c2=S)O[C@H]1c1ccccc1Cl (racemic)
129 to 132	CCC(CC)n1nnc2c([N+](=O)[O-])cccc21
138 to 140	CSCCOc1cc(N)c(Cl)cc1C(=O)O
126 to 127	O=C(Oc1ccccc1Br)c1cc(I)c[nH]1
119 to 121	CC(C)(C)OC(=O)N1CCC(O)(Cc2ccc3ccccc3n2)CC1
150 to 151	CC(=O)OC(C)(C)c1nnc(-c2ccc3ncn(-c4ccc(OC(F)(F)F)cc4)c3c2)o1
186 to 189	COC(=O)c1cc(Cl)cc2c1OC(C)C(=O)N2 (centres undefined)
232 to 233	CCCSc1cccc2c1C(=O)c1cccc(SCCC)c1C2=O
100 to 101	COc1ccc2ccc3c(c2c1)CCC(=O)O3
183 to 184	COC(=O)c1cnn(C)c1S(=O)(=O)NC(=O)Nc1nc(C)cc(OC)n1
139 to 140	CCOP(=O)(OCC)c1ccc(NC(=O)CCc2oc(-c3ccccc3)nc2-c2ccc(Cl)cc2)cc1
156 to 158	CC(C)C(NC(=O)N(C)Cc1ccccn1)C(=O)N(C(=O)C(NC(=O)N(C)Cc1nccs1)C(C)C)C(Cc1ccccc1)CC(O)CCc1ccccc1 (centres undefined)
130	COc1cc2c(cc1OC)C(O)N(CCc1ccccc1)C2=O (centres undefined)
97 to 98	COC(=O)C=Cc1ccc(-c2ccccc2C(F)(F)F)c(C(F)(F)F)c1
94	O=C(O)CCNc1ccccc1CNC(=O)C1Cc2ccccc2N1S(=O)(=O)c1ccc(-c2cccc(C(F)(F)F)c2)cc1 (centres undefined)

SMILES	melting point [°C]
CC1(C)CCC(C)(C)c2cc(-c3cc4ccc(C(=O)O)cc4o3)ccc21	280
Cc1ccc(-c2c(O)nc(S)nc2O)cc1	290 to 292
CC(C)(C)OC(=O)c1ncn2c1[C@@H]1CCCN1C(=O)c1c-2cccc1C(F)(F)F	201 to 203
COc1ccc(C(=O)N2CCCC2=O)cc1O	123 to 125
